Values of other authors, collected in US20210401968A1 (priority 2018, published 2021).
Where two headings read alike, the source gives them in different places.

What was measured:
[1] = molecular target: T1, progesterone receptor-based transactivator (Homo sapiens, UniProt P06401); conditions: rats
T1 construct: host or cells: rats (host animal of the cited study)
T1 sequence (P06401 640-891, added parts left off): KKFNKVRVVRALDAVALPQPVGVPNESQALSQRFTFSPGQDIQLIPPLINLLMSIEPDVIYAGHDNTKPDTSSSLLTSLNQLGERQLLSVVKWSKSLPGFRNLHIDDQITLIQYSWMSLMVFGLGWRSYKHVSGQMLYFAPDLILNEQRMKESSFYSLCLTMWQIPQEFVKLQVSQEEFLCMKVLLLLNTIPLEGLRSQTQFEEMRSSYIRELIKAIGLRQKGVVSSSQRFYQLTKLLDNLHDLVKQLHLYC

Question: With `CC#C[C@]1(O)CC[C@H]2[C@@H]3CCC4=CC(=O)CCC4=C3[C@@H](c3ccc(N(C)C)cc3)C[C@@]21C` [mifepristone] as the compound, how does the “amount giving an effective concentration” value ([1]; i.p.) read?
Answer: 5 µg/kg

Question: What about the “amount giving an effective concentration” value ([1]; orally) of the same compound?
Answer: about 10 μg/kg

Question: What about the “duration of sustained target gene expression after a single heat treatment” value (luciferase target gene) of the same compound?
Answer: at least 6 days

Question: What about the “target gene expression after heat treatment” value (luciferase target gene) of the same compound?
Answer: resulted in activation of target gene expression
